Results on 53 compounds are retold here after patent US20250214977A1, “STAT6 INHIBITORS AND USES THEREOF” (Kymera Therapeutics, Inc., priority 2024, published 2025).

pIC50: −log10 of the molar value.

The experiment relates to Phosphorylation of STAT6 in human A549 cells. Kind of experiment: Phosphorylated STAT6 (pSTAT6) flow cytometry assay in human A549 cells. Conditions: read-out: STAT6 IL4 pSTAT6 assay in A549 cells: Average IC50. The format is cell-based. The source says: Example 3. Phosphorylated STAT6 (pSTAT6) Flow Cytometry Assay in Human A549 Cells
Phosphorylation of STAT6 in human A549 cells was quantitatively measured using flow cytometry technology.
A general note: In flow cytometry, cells or beads pass a laser one at a time.

As usually defined, the pIC50 is the negative decadic logarithm of the IC50, by convention in mol/L. On to `COc1ccccc1-c1cc(C2=CCCN(C(=O)CCn3ccnn3)C2)c(F)c2[nH]c(C(=O)N3CCN(c4cnn5c4CCC5)CC3)cc12` [Example I-1013], for which the negative logarithm of the IC50 (pIC50) was > 7.00. The result for `COc1ccccc1-c1cc(C2=CCCN(C(=O)CCn3ccnn3)C2)c(F)c2[nH]c(C(=O)N3CCOCC3)cc12` [Example I-985] reads > 7.00; that for `COc1ccccc1-c1cc(C2=CCCN(C(=O)CCn3ccnn3)C2)c(F)c2[nH]c(C(=O)N3CCN(c4cn(C)c(=O)c5ccccc45)CC3)cc12` [Example I-905], > 7.00.

With `COc1cc(F)cnc1N1CCN(C(=O)c2cc3c(-c4cccc(C5(C#N)CC5)c4)cc(C4=CCCN(C(=O)CCn5ccnn5)C4)c(F)c3[nH]2)CC1` [Example I-649], the pIC50 is > 7.00. As for `CN(C)C(=O)c1cc2cc(C3=CCCN(C(=O)CCn4ccnn4)C3)cc(CN3CCCCC3)c2o1` [Example I-1178], the figure is 6.00 to 7.00; as for `COc1cc(C#N)ccc1-c1cc(C2=CCCN(C(=O)CCn3ccnn3)C2)c(F)c2[nH]c(C(=O)N3CCN(c4ncccc4OC)CC3)cc12` [Example I-576], > 7.00. The result for `COc1ccccc1-c1cc(C2=CCCN(C(=O)CCn3ccnn3)C2)c(F)c2[nH]c(C(=O)N3CCN(c4nnn(C)c4C)CC3)cc12` [Example I-778] reads > 7.00. As for `COc1ccccc1-c1cc(C2=CCCN(C(=O)CCn3ccnn3)C2)c(F)c2[nH]c(C(=O)N3CCN(c4c(O)ccc5ccccc45)CC3)cc12` [Example I-965], the figure is 6.00 to 7.00. `COc1ccccc1-c1cc(C2=CCCN(C(=O)CCn3ccnn3)C2)c(F)c2[nH]c(C(=O)N3CCN(c4cccc(OC(F)(F)F)n4)CC3)cc12` [Example I-430]: the negative-log IC50 (pIC50) was 6.00 to 7.00. The result for `COc1cccc(N2CCN(C(=O)c3cc4c(-c5cnc6ccccc6c5OC)cc(C5=CCCN(C(=O)CCn6ccnn6)C5)c(F)c4[nH]3)CC2)n1` [Example I-1038] reads 6.00 to 7.00; that for `CN(C)C(=O)c1cc2cc(C3=CCCN(C(=O)CCn4ccnn4)C3)cc(NCc3ccc(C(F)(F)F)cc3)c2o1` [Example I-877], 6.00 to 7.00; that for `CCc1cc(C)ncc1-c1cc(C2=CCCN(C(=O)CCn3ccnn3)C2)c(F)c2[nH]c(C(=O)N3CCN(c4nc(C)c(F)cc4OC)CC3)cc12` [Example I-737], > 7.00. As for `COc1ccccc1-c1cc(C2=CCCN(C(C)=O)C2)c(F)c2[nH]c(C(=O)N(C)C)cc12` [Example I-1069], the figure is > 7.00.

Take `COc1ccccc1-c1cc(C2=CCCN(C(=O)CCn3ccnn3)C2)c(F)c2[nH]c(C(=O)N3CCN(c4cc(C#N)ccn4)CC3)cc12` [Example I-875]: the negative logarithm of the IC50 (pIC50) was > 7.00. The result for `COc1cc(F)cnc1N1CCN(C(=O)c2cc3c(-c4cnccc4C(C)C)cc(C4=CCCN(C(=O)CCn5cccn5)C4)c(F)c3[nH]2)CC1` [Example I-669] reads > 7.00. `COc1cc(F)cnc1N1CCN(C(=O)c2cc3c(-c4ccnc(F)c4OC)cc(C4=CCCN(C(=O)CCn5ccnn5)C4)c(F)c3[nH]2)CC1` [Example I-656]: the negative logarithm of the IC50 (pIC50) is > 7.00. The result for `COc1cc(F)ccc1-c1cc(C2=CCCN(C(=O)CCn3ccnn3)C2)cc2[nH]c(C(=O)N(C)C)cc12` [Example I-1055] reads > 7.00; that for `COc1ccccc1-c1cc(C2=CCCN(C(=O)CCn3ccnn3)C2)c(F)c2[nH]c(C(=O)N3CCN(c4ccc(OC)c(OC)c4OC)CC3)cc12` [Example I-922], 6.00 to 7.00.

For `COc1ccncc1-c1cc(C2=CCCN(C(=O)CCn3ccnn3)C2)c(F)c2[nH]c(C(=O)N3CCN(c4ccc(C#N)cc4OC)CC3)cc12` [Example I-474], the negative-log IC50 (pIC50) was > 7.00. As to `COc1c(-c2cc(C3=CCCN(C(=O)CCn4ccnn4)C3)c(F)c3[nH]c(C(=O)N4CCN(c5ncccc5OC5CC5)CC4)cc23)cnc2ccccc12` [Example I-447], the pIC50 is > 7.00. The result for `CCOC(=O)c1ccc(N2CCN(C(=O)c3cc4c(-c5ccccc5OC)cc(C5=CCCN(C(=O)CCn6ccnn6)C5)c(F)c4[nH]3)CC2)cc1` [Example I-931] reads 6.00 to 7.00; that for `CN(C)C(=O)c1cc2ccc([C@H]3CCCN(C(=O)CCn4ccnn4)C3)c(F)c2[nH]1` (single isomer, unassigned) [Example I-1187], > 7.00. For `COc1ccccc1-c1cc(C2=CCCN(C(=O)CCn3ccnn3)C2)c(F)c2[nH]c(C(=O)N3CCN(c4cn(C)c5ncncc45)CC3)cc12` [Example I-1016], the pIC50 was > 7.00.

For the compound `COC(=O)c1cnn(-c2cc(C3=CCCN(C(=O)CCn4ccnn4)C3)cc3cc(C(=O)N(C)C)oc23)c1` [Example I-1049], the negative-log IC50 (pIC50) is 6.00 to 7.00. The result for `COc1ccccc1-c1cc(C(=O)N2Cc3cnn(C)c3C2)cc2cc(C3=CCCN(C(=O)CCn4ccnn4)C3)n(CC3CC3)c12` [Example I-736] reads > 7.00; that for `COc1ccccc1N1CCN(C(=O)c2cc3c(-c4cnc5ccccc5c4OC)cc(C4=CCCN(C(=O)CCn5ccnn5)C4)c(F)c3[nH]2)CC1` [Example I-448], > 7.00.

As for `COc1ccncc1-c1cc(C2=CCCN(C(=O)CCn3ccnn3)C2)c(F)c2[nH]c(C(=O)N3CCN(c4cccnc4C#N)CC3)cc12` [Example I-493], the negative logarithm of the IC50 (pIC50) was < 4.00. As for `CCCOc1ncccc1-c1cc(C2=CCCN(C(=O)CCn3ccnn3)C2)c(F)c2[nH]c(C(=O)N3CCN(c4ncc(F)cc4OC)CC3)cc12` [Example I-652], the figure is > 7.00; as for `COc1ccccc1-c1cc(C2CCCN(C(=O)CCn3ccnn3)C2)c(F)c2[nH]c(C(=O)N3CCN(c4ncccc4OC)CC3)cc12` (centres unmarked) [Example I-348], > 7.00; as for `CCc1cnccc1-c1cc(C2=CCCN(C(=O)CCn3cccn3)C2)c(F)c2[nH]c(C(=O)N3CCN(c4ncc(OC)cc4OC)CC3)cc12` [Example I-684], > 7.00. As for `COc1ccccc1-c1cc(C2=CCCN(C(=O)C3Cc4ccccc4CN3C=O)C2)cc2cc(C(=O)N(C)C)oc12` (centres unmarked) [Example I-838], the figure is > 7.00; as for `COc1cc(F)ccc1-c1cc(C2=CCCN(C(=O)CCn3ccnn3)C2)c(F)c2[nH]c(C(=O)N3CCN(c4ncccc4OC4CC4)CC3)cc12` [Example I-594], > 7.00; as for `CC(=O)N1CCC=C(c2cc(-c3ccc4n[nH]c(C)c4c3)c3cc(C(=O)N(C)C)[nH]c3c2F)C1` [Example I-883], 6.00 to 7.00. The result for `COc1ccncc1-c1cc(C2=CCCN(C(C)=O)C2)c(F)c2sc(C(=O)N(C)C)cc12` [Example I-555] reads 6.00 to 7.00; that for `COc1ccccc1-c1cc(C2=CCCN(C(=O)CCn3ccnn3)C2)c(F)c2[nH]c(C(=O)N3CCN(c4cc(F)c(F)c5ccc(C)nc45)CC3)cc12` [Example I-907], > 7.00. Regarding `CN(C)C(=O)c1cc2ccc(C3=CCCN(C(=O)CCc4nccs4)C3)cc2[nH]1` [Example I-821], the pIC50 was 6.00 to 7.00.

Regarding `CN(C)C(=O)c1cc2cc(C3=CCCN(C(=O)CCn4ccnn4)C3)cnc2[nH]1` [Example I-819], the negative-log IC50 (pIC50) is 6.00 to 7.00. As for `COc1ccccc1-c1cc(C2=CCCN(C(=O)CCn3ccnn3)C2)c(F)c2[nH]c(C(=O)N3CCN(Cc4c(C)nn(C)c4C)CC3)cc12` [Example I-1182], the figure is > 7.00; as for `COc1cc(F)cnc1N1CCN(C(=O)c2cc(-c3cccnc3C3CC3)c3c(c2)cc(C2=CCCN(C(=O)CCn4ccnn4)C2)n3CC2CC2)CC1` [Example I-728], < 4.00; as for `COc1cc(F)c(F)cc1-c1cc(C2=CCCN(C(=O)CCn3ccnn3)C2)c(F)c2[nH]c(C(=O)N3CCN(c4ncccc4OC)CC3)cc12` [Example I-559], > 7.00. `COc1cc(F)cnc1N1CCN(C(=O)c2cc3c(-c4ccc(OC5CCCCO5)cc4)cc(C4=CCCN(C(=O)CCn5ccnn5)C4)c(F)c3[nH]2)CC1` (centres unmarked) [Example I-1166]: the negative logarithm of the IC50 (pIC50) was > 7.00. The result for `COc1cc(F)cnc1N1CCN(C(=O)c2cc3c(-c4ccc(OCC5CC5)nc4)cc(C4=CCCN(C(=O)CCn5ccnn5)C4)c(F)c3[nH]2)CC1` [Example I-1164] reads 6.00 to 7.00. As for `COc1ccccc1-c1cc(C2=CCCN(C(=O)CCn3ccnn3)C2)c(F)c2[nH]c(C(=O)N3CCCN(c4ccc(F)cn4)CC3)cc12` [Example I-850], the figure is > 7.00; as for `CCc1cnccc1-c1cc(C2=CCCN(C(=O)CCn3cccn3)C2)c(F)c2[nH]c(C(=O)N3CCN(c4ncc(F)cc4OC)CC3)cc12` [Example I-688], > 7.00. As for `CCOc1ccncc1-c1cc(C2=CCCN(C(=O)CCn3ccnn3)C2)c(F)c2[nH]c(C(=O)N3CCN(c4ncncc4OC)CC3)cc12` [Example I-1108], the figure is > 7.00. Take `COc1cc(F)cnc1N1CCN(C(=O)c2cc3c(-c4cnn(-c5ccccc5)c4C)cc(C4=CCCN(C(=O)CCn5ccnn5)C4)c(F)c3[nH]2)CC1` [Example I-625]: the pIC50 is > 7.00. As for `CCc1ccc(-c2cc(C(=O)N3CCN(c4ncc(F)cc4OC)CC3)cc3cc(C4=CCCN(C(=O)C5CC5C(=O)O)C4)n(CC4CC4)c23)c(C)n1` (centres unmarked) [Example I-545], the figure is > 7.00; as for `COc1ccccc1-c1cc(C2=CCCN(C(=O)CCn3ccnn3)C2)c(F)c2[nH]c(C(=O)N3CCN(c4ncc(F)cc4OC)CC3)cc12` [Example I-370], > 7.00; as for `COc1cc(N)ccc1-c1cc(C2=CCCN(C(=O)CCn3ccnn3)C2)c(F)c2[nH]c(C(=O)N3CCN(c4ncccc4OC)CC3)cc12` [Example I-571], > 7.00. On to `CN(C)C(=O)c1cc2cc(C3=CCCN(C(=O)CCn4ccnn4)C3)cc(-c3cc(C(F)(F)F)nn3C)c2o1` [Example I-855], for which the pIC50 is > 7.00.

Consider `COc1ccccc1-c1cc(C2=CCCN(C(=O)CCn3ccnn3)C2)c(F)c2[nH]c(CN3CCN(c4ncccc4OC)CC3=O)cc12` [Example I-1171], for which the negative logarithm of the IC50 (pIC50) is 6.00 to 7.00. The result for `COc1cccnc1N1CCN(C(=O)c2cc3c(-n4ccc5ccccc54)cc(C4=CCCN(C(=O)CCn5ccnn5)C4)c(F)c3[nH]2)CC1` [Example I-578] reads > 7.00.

In the case of `COc1ccc(N2CCN(C(=O)c3cc4c(-c5ccccc5OC)cc(C5=CCCN(C(=O)CCn6ccnn6)C5)c(F)c4[nH]3)CC2)cc1` [Example I-960], the pIC50 was > 7.00.
